From ChEMBL document CHEMBL1149970, “Novel dithiocarbamate carbapenems1 with anti-MRSA activity” (Bioorg Med Chem Lett, 1997)
In brackets after ≈: the same amount, converted by molar mass.

Experiments:
Staphylococcus aureus [1] = assay: Compound was tested in vitro for its anti-methicillin-resistant staphylococcus aureus(MRSA); 3.13-6.25; type: functional
Mus musculus = organism: Mus musculus; assay: Compound was measured for binding rate for mouse serum at a carbapenem concentration of 10 ug/mL; type: functional
[2] = target: T1, Dipeptidase 1 (Sus scrofa) (UniProt P22412); assay: Compound was measured for DHP-I susceptibility; type: functional
T1 sequence (whole entry): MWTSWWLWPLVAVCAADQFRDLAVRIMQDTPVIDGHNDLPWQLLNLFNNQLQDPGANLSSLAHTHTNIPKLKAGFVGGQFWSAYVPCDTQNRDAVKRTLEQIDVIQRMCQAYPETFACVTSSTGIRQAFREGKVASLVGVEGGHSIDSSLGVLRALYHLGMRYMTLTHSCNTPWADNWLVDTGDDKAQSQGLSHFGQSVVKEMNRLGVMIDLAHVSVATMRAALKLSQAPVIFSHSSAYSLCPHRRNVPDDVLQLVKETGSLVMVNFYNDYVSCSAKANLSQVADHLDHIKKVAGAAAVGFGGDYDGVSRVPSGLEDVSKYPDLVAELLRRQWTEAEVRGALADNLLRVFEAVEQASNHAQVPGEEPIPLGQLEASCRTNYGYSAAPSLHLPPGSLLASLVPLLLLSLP

Enterococcus faecalis = assay: In vitro antibacterial activity against Enterococcus faecalis MB4996 organism; type: functional
[3] = (§1) PBP-2'' affinity was determined by the competition assay with [14C]benzylpenicillin using membrane isolated from MRSA BB6294 strain; type: functional, Staphylococcus aureus
[4] = Compound was measured for binding rate for human serum at a carbapenem concentration of 10 ug/mL; type: ADME; details: read-out: Protein binding (converted)
Staphylococcus aureus [5] = assay: Compound was tested in vivo for its anti-methicillin-resistant staphylococcus aureus(MRSA); type: functional
Staphylococcus aureus [6] = assay: In vitro antibacterial activity against staphylococcus aureus CSa1009 (Methicillin-resistant strain and b beta-Lactamase producing strain); type: functional
Rattus norvegicus [7] = assay: Epileptogenicity of compound was measured at 100 ug/rat head by the rat intraventricular assay; 1/5; type: functional
Escherichia coli = assay: In vitro antibacterial activity against Escherichia coli NIHJ JC2 organism; type: functional
[8] = target: T1, Dipeptidase 1 (Sus scrofa); assay: Relative rate of hydrolysis of porcine renal dehydropeptidase-I (DHP-I) to imipenem; type: functional
[9] = test system: Staphylococcus epidermidis; assay: In vitro antibacterial activity against Staphylococcus epidermidis MB5181a organism; type: functional; details: Staphylococcus epidermidis; read-out: MIC
Pseudomonas aeruginosa = assay: In vitro antibacterial activity against Pseudomonas aeruginosa MB5002 organism; type: functional
Staphylococcus aureus [10] = assay: In vitro antibacterial activity against staphylococcus aureus 209P NIHJ JC1 organism; type: functional
Staphylococcus aureus [11] = assay: In vitro antibacterial activity against staphylococcus aureus BB6294 organism (Methicillin-resistant strain); type: functional
Staphylococcus aureus [12] = assay: as §1; type: functional
Staphylococcus aureus [13] = assay: Compound was tested in vitro for its anti-methicillin-resistant staphylococcus aureus(MRSA); 0.78-3.13; type: functional
Rattus norvegicus [14] = assay: Epileptogenicity of compound was measured at 100 ug/rat head by the rat intraventricular assay; 0/5; type: functional, Cerebral ventricle
Rattus norvegicus [15] = assay: Epileptogenicity of compound was measured at 100 ug/rat head by the rat intraventricular assay; 3/5; type: functional
Staphylococcus aureus [16] = assay: Compound was tested in vitro for its anti-methicillin-resistant staphylococcus aureus(MRSA); 3.13-12.5; type: functional

Compound | MIC (Staphylococcus aureus [1]) | PPB (Mus musculus) | DHP-I susceptibility [2] | MIC (Enterococcus faecalis) | IC50 [3] | fraction unbound at 10 ug/mL [4] | ED50 (Staphylococcus aureus [5]) | MIC (Staphylococcus aureus [6]) | MIC (Escherichia coli) | DHP-I susceptibility [8] | MIC [9] | MIC (Pseudomonas aeruginosa) | MIC (Staphylococcus aureus [10]) | MIC (Staphylococcus aureus [11]) | Epileptogenicity (Rattus norvegicus [14]) | other results
C[C@@H](O)[C@H]1C(=O)N2C(C(=O)O)=C(SC(=S)N3CCCC3)[C@H](C)[C@H]12 | 4.04 µg/mL (≈ 11.3 µM) | 95% | 3.18 | 12.5 µg/mL (≈ 35.1 µM) | 5.6 µg/mL (≈ 15.7 µM) | 0.06 | 6.24 mg/kg | 6.25 µg/mL (≈ 17.5 µM) | 6.25 µg/mL (≈ 17.5 µM) | 3.18 | 3.13 µg/mL (≈ 8.78 µM) | > 25 µg/mL | 0.012 µg/mL (≈ 0.0337 µM) | 3.13 µg/mL (≈ 8.78 µM) | – | Epileptogenicity (Rattus norvegicus [7]): 1
C[C@@H](O)[C@H]1C(=O)N2C(C(=O)O)=C(SCCNC=N)C[C@H]12 [IMIPENEM ANHYDROUS] | – | – | – | 0.78 µg/mL (≈ 2.61 µM) | – | – | – | 100 µg/mL (≈ 334 µM) | 0.1 µg/mL (≈ 0.334 µM) | 1 | 100 µg/mL (≈ 334 µM) | 1.56 µg/mL (≈ 5.21 µM) | < 0.006 µg/mL | 100 µg/mL (≈ 334 µM) | – | IC50 (Staphylococcus aureus [12]): 125 µg/mL (≈ 418 µM); ED50 (Staphylococcus aureus [5]; Staphylococcus aureus): > 200 mg/kg
C[C@@H](O)[C@H]1C(=O)N2C(C(=O)O)=C(SC(=S)N(C)Cc3cccc4ccccc34)[C@H](C)[C@H]12 | – | 99% | 4.41 | 1.56 µg/mL (≈ 3.42 µM) | – | 0.01 | > 50 mg/kg | 1.56 µg/mL (≈ 3.42 µM) | 25 µg/mL (≈ 54.8 µM) | 4.41 | 0.39 µg/mL (≈ 0.854 µM) | > 25 µg/mL | < 0.006 µg/mL | 0.78 µg/mL (≈ 1.71 µM) | 0 | MIC (Staphylococcus aureus [13]): 1.15 µg/mL (≈ 2.52 µM)
C[C@@H](O)[C@H]1C(=O)N2C(C(=O)O)=C(SC(=S)N(C)CCO)[C@H](C)[C@H]12 | 4.36 µg/mL (≈ 12.1 µM) | 58% | 1.33 | 6.25 µg/mL (≈ 17.3 µM) | 3.8 µg/mL (≈ 10.5 µM) | 0.53 | 4.8 mg/kg | 6.25 µg/mL (≈ 17.3 µM) | 0.78 µg/mL (≈ 2.16 µM) | 1.36 | 6.25 µg/mL (≈ 17.3 µM) | > 25 µg/mL | 0.025 µg/mL (≈ 0.0694 µM) | 3.13 µg/mL (≈ 8.68 µM) | 0 | –
C[C@@H](O)[C@H]1C(=O)N2C(C(=O)[O-])=C(SC(=S)N3CC[N+](C)(Cc4ccccc4)CC3)[C@H](C)[C@H]12 | – | 82% | 0.15 | 1.56 µg/mL (≈ 3.28 µM) | – | 0.4 | 10 mg/kg | 6.25 µg/mL (≈ 13.1 µM) | 1.56 µg/mL (≈ 3.28 µM) | 0.15 | 1.56 µg/mL (≈ 3.28 µM) | > 25 µg/mL | < 0.006 µg/mL | 3.13 µg/mL (≈ 6.58 µM) | – | Epileptogenicity (Rattus norvegicus [15]): 3; MIC (Staphylococcus aureus [16]): 5.36 µg/mL (≈ 11.3 µM)
